The values that follow come from EP4810500A1, “IMIDAZOL-2-ONE DERIVATIVE AND USE THEREOF IN MEDICINE” (Haisco Pharmaceutical Group Co., Ltd., priority 2023, dated 2025).

Some results are limits rather than exact numbers.

Sequence of GLP-1R (P43220 24-463): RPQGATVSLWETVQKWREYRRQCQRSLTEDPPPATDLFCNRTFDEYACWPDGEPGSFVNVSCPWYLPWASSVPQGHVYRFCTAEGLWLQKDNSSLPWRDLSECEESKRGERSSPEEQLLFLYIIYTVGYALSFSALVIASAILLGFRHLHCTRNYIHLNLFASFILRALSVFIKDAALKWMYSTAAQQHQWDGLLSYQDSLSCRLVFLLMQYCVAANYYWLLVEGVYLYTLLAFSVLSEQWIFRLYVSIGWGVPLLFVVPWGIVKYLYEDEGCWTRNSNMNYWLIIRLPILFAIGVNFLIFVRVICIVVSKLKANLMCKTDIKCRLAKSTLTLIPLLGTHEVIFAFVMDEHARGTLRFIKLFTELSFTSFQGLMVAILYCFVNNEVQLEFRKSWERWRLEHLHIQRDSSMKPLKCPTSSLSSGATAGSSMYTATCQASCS

This test concerns the target GLP-1R (Homo sapiens, UniProt P43220). In words: In vitro activity assay (cAMP HTRF, HEK293-CRE-luc-GLP-1R cells). Format: cell-based. Further details: expressed in transfected cells; host or cells: HEK293 (HEK293-CRE-luc-GLP-1R). To be noted: cAMP HTRF 665 nm/620 nm, 1 h incubation. Here is the method:
HEK293-CRE-luc-GLP-1R cells were seeded into a 384-well cell culture plate (Greiner #781946) at a certain cell density (5 µL/well). 5 µl/well of 2× working solution was added to the 384-well microplate. The microplate was sealed with parafilm and incubated in a 37°C 5% CO2 incubator (Thermo) for 1 h. Subsequently, the detection was performed using the cAMP-GS HIRANGE KIT (PerkinElmer, 62AM6PEB), and detection reagents were prepared according to the kit instruction manual. After the incubation, the detection reagents were added to the 384-well microplate, and the microplate was incubated for 1 h at room temperature in the dark. HTRF signals at 665 nm and 620 nm were then measured using a multimode microplate reader. Data were exported from the microplate reader in Excel format. GraphPad Prism was opened. The logarithm of the sample concentration was calculated. Using the logarithm of concentration as the x-axis and the 665 nm/620 nm ratio as the y-axis, four-parameter logistic fitting was performed to obtain the EC50 value of the curve. Table 1: EC50 of compounds against GLP-1
A general note: Time-resolved FRET reads energy transfer from a long-lived donor to a nearby acceptor.
The compound `[2H]C([2H])([2H])N1C(=O)C2(CCOCC2)c2ccc(-n3ccn(-c4c5c(nn4-c4ccc(F)c(C6(F)CC6)c4)CCN(C(=O)c4cc6cc(C7CCOCC7)ccc6n4[C@@]4(c6noc(=O)[nH]6)C[C@@H]4C)[C@H]5C)c3=O)c(F)c21` [Compound 51] came in with an EC50 of less than 1 nM. In turn, `C[C@H]1c2c(nn(-c3ccc(F)c(C4(F)CC4)c3)c2-n2ccn(-c3ccc4c(c3F)N(C)C(=O)C43CCOCC3)c2=O)CCN1C(=O)c1cc2cc([C@H]3CCOC(C)(C)C3)ccc2n1[C@@]1(c2noc(=O)[nH]2)C[C@@H]1C` [Compound 46] yielded a half-maximal effective concentration (EC50) of less than 1 nM. The same measure for `[2H]C([2H])([2H])N1C(=O)C2(CCOCC2)c2ccc(-n3ccn(-c4c5c(nn4-c4cc(C)c(F)c(C)c4)CCN(C(=O)c4cc6cc(C7CCOCC7)ccc6n4[C@@]4(c6noc(=O)[nH]6)C[C@@H]4C)[C@H]5C)c3=O)c(F)c21` [Compound 57]: less than 1 nM; for `Cc1cc(-n2nc3c(c2-n2ccn(-c4ccc5c(c4)N(C)C(=O)C54CCN(C(=O)C5C6COCC65)CC4)c2=O)[C@H](C)N(C(=O)c2cc4cc([C@H]5CCOC(C)(C)C5)ccc4n2[C@@]2(c4noc(=O)[nH]4)C[C@@H]2C)CC3)cc(C)c1F` (stereo partly shown) [Compound 22]: less than 1 nM; for `Cc1cc(-n2nc3c(c2-n2ccn(-c4ccc5c(c4)N(C)C(=O)C54CCN(C(=O)C5CC5)CC4)c2=O)[C@H](C)N(C(=O)c2cc4cc([C@H]5CCOC(C)(C)C5)ccc4n2[C@@]2(c4noc(=O)[nH]4)C[C@@H]2C)CC3)cc(C)c1F` [Compound 12]: less than 1 nM. `[2H]C([2H])([2H])N1C(=O)C2(CCOCC2)c2ccc(-n3ccn(-c4c5c(nn4-c4cc(C)c(F)c(C)c4)CCN(C(=O)c4cc6cc(C7CCOCC7)ccc6n4[C@@]4(c6noc(=O)[nH]6)C[C@@H]4C)[C@H]5C)c3=O)cc21` [Compound 58] gave an EC50 of less than 1 nM.

`Cc1cc(-n2nc3c(c2-n2ccn(-c4ccc5c(c4)N(C)C(=O)C54CCN(C(=O)C56CC(F)(C5)C6)CC4)c2=O)[C@H](C)N(C(=O)c2cc4cc([C@H]5CCOC(C)(C)C5)ccc4n2[C@@]2(c4noc(=O)[nH]4)C[C@@H]2C)CC3)cc(C)c1F` [Compound 26] displayed a concentration giving a half-maximal response (EC50) of less than 1 nM.

Turning to `C[C@H]1c2c(nn(-c3ccc(F)c(C4(F)CC4)c3)c2-n2ccn(-c3ccc4c(c3F)N(C)C(=O)C43CCOCC3)c2=O)CCN1C(=O)c1cc2cc(C3CCOCC3)ccc2n1[C@@]1(c2noc(=O)[nH]2)C[C@@H]1C` [Compound 49], the EC50 was less than 1 nM. As for `Cc1cc(-n2nc3c(c2-n2ccn(-c4ccc5c(c4)N(C)C(=O)C54CCN(C(=O)c5cnn(C(F)F)c5)CC4)c2=O)[C@H](C)N(C(=O)c2cc4cc([C@H]5CCOC(C)(C)C5)ccc4n2[C@@]2(c4noc(=O)[nH]4)C[C@@H]2C)CC3)cc(C)c1F` [Compound 30], the EC50 is less than 1 nM. Regarding `[2H]C([2H])([2H])N1C(=O)C2(CCN(S(=O)(=O)C3CC3)CC2)c2ccc(-n3ccn(-c4c5c(nn4-c4cc(C)c(F)c(C)c4)CCN(C(=O)c4cc6cc([C@H]7CCOC(C)(C)C7)ccc6n4[C@@]4(c6noc(=O)[nH]6)C[C@@H]4C)[C@H]5C)c3=O)cc21` [Compound 38], the concentration giving a half-maximal response (EC50) is less than 1 nM. Regarding `[2H]C([2H])([2H])N1C(=O)C2(CCOCC2)c2ccc(-n3ccn(-c4c5c(nn4-c4ccc(F)c(C6(F)CC6)c4)CCN(C(=O)c4cc6cc([C@H]7CCOC(C)(C)C7)ccc6n4[C@@]4(c6noc(=O)[nH]6)C[C@@H]4C)[C@H]5C)c3=O)c(F)c21` [Compound 45], the concentration for a half-maximal effect (EC50) is less than 1 nM. As for `Cc1cc(-n2nc3c(c2-n2ccn(-c4ccc5c(c4)N(C)C(=O)C54CCCC4)c2=O)[C@H](C)N(C(=O)c2cc4cc([C@H]5CCOC(C)(C)C5)ccc4n2[C@@]2(c4noc(=O)[nH]4)C[C@@H]2C)CC3)cc(C)c1F` [Compound 5], the EC50 is less than 1 nM. `Cc1cc(-n2nc3c(c2-n2ccn(-c4ccc5c(c4)N(C)C(=O)C54CCN(C(=O)c5cnn(C6CC6)c5)CC4)c2=O)[C@H](C)N(C(=O)c2cc4cc([C@H]5CCOC(C)(C)C5)ccc4n2[C@@]2(c4noc(=O)[nH]4)C[C@@H]2C)CC3)cc(C)c1F` [Compound 25] yielded an EC50 of less than 1 nM.

The EC50 is the concentration at which the effect is half-maximal. Lower therefore signals an effect from little substance.
